Test results taken from patent US10233188B2, “CDK2/4/6 inhibitors” (priority 2016, dated 2019).

Experiments:
[1] = target: CDK2/Cyclin E1 (Homo sapiens (Human), UniProt P24941); test: biochemical; conditions: CDK2_Ki (nM), phosphorylated CDK2/Cyclin E1, 150 μM ATP, Morrison tight-binding fit
Procedure: The assay was initiated with the addition of ATP, following a fifteen minutes pre-incubation of enzyme and inhibitor at room temperature in the reaction mixture. The reaction was stopped after 45 minutes at room temperature by the addition of 50 μL of 80 mM EDTA, pH 7.5.

[2] = target: CDK6/Cyclin D1 (Homo sapiens (Human), UniProt Q00534); test: biochemical; conditions: CDK6_Ki (nM), non-phosphorylated CDK6/Cyclin D1, 2 mM ATP, Morrison fit
Sequence of CDK6/Cyclin D1 (Q00534 whole entry): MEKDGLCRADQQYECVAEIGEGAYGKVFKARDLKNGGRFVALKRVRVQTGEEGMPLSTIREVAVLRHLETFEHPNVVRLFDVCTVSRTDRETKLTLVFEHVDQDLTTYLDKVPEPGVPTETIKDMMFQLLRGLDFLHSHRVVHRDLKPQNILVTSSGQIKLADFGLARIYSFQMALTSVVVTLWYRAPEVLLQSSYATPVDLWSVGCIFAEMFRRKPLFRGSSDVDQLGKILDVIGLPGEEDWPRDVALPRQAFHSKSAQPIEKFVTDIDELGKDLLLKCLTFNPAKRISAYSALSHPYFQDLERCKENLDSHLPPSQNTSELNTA
Sequence of CDK6/Cyclin D1 (P24385 whole entry partner): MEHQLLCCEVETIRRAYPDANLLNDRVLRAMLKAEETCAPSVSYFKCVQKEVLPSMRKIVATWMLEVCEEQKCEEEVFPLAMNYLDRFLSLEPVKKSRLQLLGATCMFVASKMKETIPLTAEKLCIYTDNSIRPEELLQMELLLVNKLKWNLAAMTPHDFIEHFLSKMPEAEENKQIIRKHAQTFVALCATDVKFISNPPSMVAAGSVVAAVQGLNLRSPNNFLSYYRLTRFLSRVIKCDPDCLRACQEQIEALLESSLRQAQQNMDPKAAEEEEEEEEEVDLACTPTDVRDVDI

Row | Structure (SMILES) | Ki [1] | Ki [2]
1 | CC(F)(F)CNS(=O)(=O)N1CCC(Nc2ncc3ccc(=O)n([C@H]4CCC[C@]4(C)O)c3n2)CC1 (single isomer, unassigned) [Example 67, (+)-N-(2,2-difluoropropyl)-4-({8-[(1R*,2R*)-2-hydroxy-2-methylcyclopentyl]-7-oxo-7,8-dihydropyrido[2,3-d]pyrimidin-2-yl}amino)piperidine-1-sulfonamide] | 4.05 nM | 21.6 nM
2 | C[C@@]1(O)CCC[C@H]1n1c(=O)ccc2cnc(NC3CCN(S(=O)(=O)C(F)(F)F)CC3)nc21 (single isomer, unassigned) [Example 88, (−)-8-[(1R*,2R*)-2-hydroxy-2-methylcyclopentyl]-2-({1-[(trifluoromethyl)sulfonyl]piperidin-4-yl}amino)pyrido[2,3-d]pyrimidin-7(8H)-one] | 1.34 nM | 1.99 nM
3 | C[C@]1(O)CCC[C@@H]1n1c(=O)ccc2cnc(NC3CCN(S(=O)(=O)CF)CC3)nc21 (single isomer, unassigned) [Example 59, (+)-2-({1-[(fluoromethyl)sulfonyl]piperidin-4-yl}amino)-8-[(1R*,2R*)-2-hydroxy-2-methylcyclopentyl]pyrido[2,3-d]pyrimidin-7(8H)-one] | 4.13 nM | 3.37 nM
4 | CC1CCC[C@@H]1n1c(=O)c(CC(N)=O)cc2cnc(NC3CCN(S(C)(=O)=O)CC3)nc21 (stereo in doubt) [Example 166, 2-(8-[(1S,2S)-2-methylcyclopentyl]-2-{[1-(methylsulfonyl)piperidin-4-yl]amino}-7-oxo-7,8-dihydropyrido[2,3-d]pyrimidin-6-yl)acetamide] | 2.23 nM | 6.71 nM
5 | C[C@]1(O)CCC[C@@H]1n1c(=O)ccc2cnc(NC3CCN(S(=O)(=O)c4nccs4)CC3)nc21 (single isomer, unassigned) [Example 79, (+)-8-[(1R*,2R*)-2-hydroxy-2-methylcyclopentyl]-2-{[1-(1,3-thiazol-2-ylsulfonyl)piperidin-4-yl]amino}pyrido[2,3-d]pyrimidin-7(8H)-one] | 7.32 nM | 9.59 nM
6 | CS(=O)(=O)N1CCC(Nc2ncc3cc(CC(F)F)c(=O)n([C@H]4CC[C@H](O)C4)c3n2)CC1 (single isomer, unassigned) [Example 171, (+)-6-(2,2-difluoroethyl)-8-[(1R*,3R*)-3-hydroxycyclopentyl]-2-{[1-(methylsulfonyl)piperidin-4-yl]amino}pyrido[2,3-d]pyrimidin-7(8H)-one] | 1.73 nM | 1.55 nM
7 | CS(=O)(=O)N1CC[C@@H](Nc2ncc3cc(Cl)c(=O)n(C4CCCC4)c3n2)[C@@H](F)C1 (single isomer, unassigned) [Example 153, (+)-6-chloro-8-cyclopentyl-2-{[(3R*,4S*)-3-fluoro-1-(methylsulfonyl)piperidin-4-yl]amino}pyrido[2,3-d]pyrimidin-7(8H)-one] | – | 2.23 nM
8 | CS(=O)(=O)N1CCC(Nc2ncc3cc(CC(F)F)c(=O)n([C@@H]4CC[C@@H](O)C4)c3n2)CC1 (single isomer, unassigned) [Example 172, (−)-6-(2,2-difluoroethyl)-8-[(1R*,3R*)-3-hydroxycyclopentyl]-2-{[1-(methylsulfonyl)piperidin-4-yl]amino}pyrido[2,3-d]pyrimidin-7(8H)-one] | 4.38 nM | 2.08 nM
9 | CS(=O)(=O)N1CC[C@@H](Nc2ncc3cc(Cl)c(=O)n(C4CCCC4)c3n2)[C@H](F)C1 (single isomer, unassigned) [Example 155, (+)-6-chloro-8-cyclopentyl-2-{[(3S*,4S*)-3-fluoro-1-(methylsulfonyl)piperidin-4-yl]amino}pyrido[2,3-d]pyrimidin-7(8H)-one] | – | 2.26 nM
10 | CS(=O)(=O)N1CC[C@@H](Nc2ncc3cc(N)c(=O)n(C4CCCC4)c3n2)[C@@H](F)C1 (single isomer, unassigned; isomer a) [Example 151, 6-amino-8-cyclopentyl-2-{[(3R*,4S*)-3-fluoro-1-(methylsulfonyl)piperidin-4-yl]amino}pyrido[2,3-d]pyrimidin-7(8H)-one-Isomer A] | – | 7.29 nM
11 | CC(=O)c1c(C)c2cnc(NC3CCN(S(C)(=O)=O)CC3)nc2n([C@H]2CCC[C@]2(C)O)c1=O (single isomer, unassigned) [Example 178, (+)-6-acetyl-8-[(1R*,2R*)-2-hydroxy-2-methylcyclopentyl]-5-methyl-2-{[1-(methylsulfonyl)piperidin-4-yl]amino}pyrido[2,3-d]pyrimidin-7(8H)-one] | 9.04 nM | –
12 | CN(C)S(=O)(=O)N1CCC(Nc2ncc3ccc(=O)n(C4CCCC4)c3n2)CC1 [Example 12, 4-[(8-cyclopentyl-7-oxo-7,8-dihydropyrido[2,3-d]pyrimidin-2-yl)amino]-N,N-dimethylpiperidine-1-sulfonamide] | 1.12 nM | –
13 | CNS(=O)(=O)N1CCC(Nc2ncc3ccc(=O)n([C@H]4CCC[C@H]4C)c3n2)CC1 [Example 45, N-methyl-4-({8-[(1S,2R)-2-methylcyclopentyl]-7-oxo-7,8-dihydropyrido[2,3-d]pyrimidin-2-yl}amino)piperidine-1-sulfonamide] | 0.93 nM | –
14 | COCCc1cc2cnc(N[C@@H]3CCN(S(C)(=O)=O)C[C@H]3F)nc2n(C2CCCC2)c1=O (single isomer, unassigned) [Example 159, (+)-8-cyclopentyl-2-{[(3S*,4S*)-3-fluoro-1-(methylsulfonyl)piperidin-4-yl]amino}-6-(2-methoxyethyl)pyrido[2,3-d]pyrimidin-7(8H)-one] | 95.2 nM | –
15 | Cc1cc2cnc(NC3CCN(S(=O)(=O)NC[C@@H]4CCCO4)CC3)nc2n([C@H]2CCC[C@]2(C)O)c1=O (single isomer, unassigned) [Example 101, (+)-4-({8-[(1R*,2R*)-2-hydroxy-2-methylcyclopentyl]-6-methyl-7-oxo-7,8-dihydropyrido[2,3-d]pyrimidin-2-yl}amino)-N-[(2S)-tetrahydrofuran-2-ylmethyl]piperidine-1-sulfonamide] | 3.59 nM | –
16 | C[C@@H]1CCC[C@@H]1n1c(=O)c(Cl)cc2cnc(NC3CCN(S(C)(=O)=O)CC3)nc21 [Example 39, 6-chloro-8-[(1S,2R)-2-methylcyclopentyl]-2-{[1-(methylsulfonyl)piperidin-4-yl]amino}pyrido[2,3-d]pyrimidin-7(8H)-one] | 1.28 nM | –
17 | O=c1ccc2cnc(NC3CCN(S(=O)(=O)C(F)F)CC3)nc2n1C1CCCC1 [Example 14, 8-cyclopentyl-2-({1-[(difluoromethyl)sulfonyl]piperidin-4-yl}amino)pyrido[2,3-d]pyrimidin-7(8H)-one] | 2.5 nM | –

Results, then the compound that gave them:

Row | Ki [1] | Ki [2] | Structure (SMILES)
18 | 1.51 nM | 1.1 nM | CNS(=O)(=O)N1CCC(Nc2ncc3cc(CCO)c(=O)n(C4CCCC4)c3n2)CC1 [Example 146, 4-{[8-cyclopentyl-6-(2-hydroxyethyl)-7-oxo-7,8-dihydropyrido[2,3-d]pyrimidin-2-yl]amino}-N-methylpiperidine-1-sulfonamide]
19 | 1.22 nM | 0.14 nM | CC(=O)c1c(C)c2cnc(NC3CCN(S(C)(=O)=O)CC3)nc2n([C@@H]2CCC[C@@]2(C)O)c1=O (single isomer, unassigned) [Example 177, (−)-6-acetyl-8-[(1R*,2R*)-2-hydroxy-2-methylcyclopentyl]-5-methyl-2-{[1-(methylsulfonyl)piperidin-4-yl]amino}pyrido[2,3-d]pyrimidin-7(8H)-one]
20 | 2.14 nM | 4.9 nM | CCS(=O)(=O)N1CCC(Nc2ncc3cc(C)c(=O)n([C@H]4CCC[C@]4(C)O)c3n2)CC1 (single isomer, unassigned) [Example 111, (+)-2-{[1-(ethylsulfonyl)piperidin-4-yl]amino}-8-[(1R*,2R*)-2-hydroxy-2-methylcyclopentyl]-6-methylpyrido[2,3-d]pyrimidin-7(8H)-one]
21 | 0.45 nM | 1.6 nM | C[C@@]1(O)CCC[C@H]1n1c(=O)ccc2cnc(NC3CCN(S(=O)(=O)CC(F)(F)F)CC3)nc21 (single isomer, unassigned) [Example 86, (−)-8-[(1R*,2R*)-2-hydroxy-2-methylcyclopentyl]-2-({1-[(2,2,2-trifluoroethyl)sulfonyl]piperidin-4-yl}amino)pyrido[2,3-d]pyrimidin-7(8H)-one]
22 | 0.46 nM | 0.76 nM | COCCS(=O)(=O)N1CCC(Nc2ncc3ccc(=O)n(C4CCCC4)c3n2)CC1 [Example 15, 8-cyclopentyl-2-({1-[(2-methoxyethyl)sulfonyl]piperidin-4-yl}amino)pyrido[2,3-d]pyrimidin-7(8H)-one]
23 | – | 0.43 nM | CS(=O)(=O)N1CC[C@H](Nc2ncc3cc(Cl)c(=O)n(C4CCCC4)c3n2)[C@H](F)C1 (single isomer, unassigned) [Example 152, (−)-6-chloro-8-cyclopentyl-2-{[(3R*,4S*)-3-fluoro-1-(methylsulfonyl)piperidin-4-yl]amino}pyrido[2,3-d]pyrimidin-7(8H)-one]
24 | 0.57 nM | – | C[C@@H]1[C@H](O)CC[C@H]1n1c(=O)c(CC(F)F)cc2cnc(NC3CCN(S(C)(=O)=O)CC3)nc21 (single isomer, unassigned) [Example 206, (−)-6-(2,2-difluoroethyl)-8-[(1R*,2S*,3R*)-3-hydroxy-2-methylcyclopentyl]-2-{[1-(methylsulfonyl)piperidin-4-yl]amino}pyrido[2,3-d]pyrimidin-7(8H)-one]
25 | – | 0.27 nM | CS(=O)(=O)N1CC[C@H](Nc2ncc3cc(Cl)c(=O)n(C4CCCC4)c3n2)[C@@H](F)C1 (single isomer, unassigned) [Example 154, (−)-6-chloro-8-cyclopentyl-2-{[(3S*,4S*)-3-fluoro-1-(methylsulfonyl)piperidin-4-yl]amino}pyrido[2,3-d]pyrimidin-7(8H)-one]
26 | 0.24 nM | – | Cc1cc2cnc(NC3CCN(S(=O)(=O)NC[C@H]4CCCO4)CC3)nc2n([C@@H]2CCC[C@@]2(C)O)c1=O (single isomer, unassigned) [Example 102, (−)-4-({8-[(1R*,2R*)-2-hydroxy-2-methylcyclopentyl]-6-methyl-7-oxo-7,8-dihydropyrido[2,3-d]pyrimidin-2-yl}amino)-N-[(2H)-tetrahydrofuran-2-ylmethyl]piperidine-1-sulfonamide]
